Results on 1 compound are retold here after patent publication US4479951A, “1.4;3.6-Dianhydrohexitol nitrates substituted by purine bases, processes for their preparation and pharmaceutical compositions” (Dr. Willmar Schwabe GmbH & Co., priority 1980, dated 1984).

This assay deals with mongrel cats. Put plainly: heart-circulation effectiveness on narcotised mongrel cats, intraduodenal administration. The settings on record: 5 mg/kg intraduodenal.
Where [1] appears, read: printed on the 0 min line (= change 0 to 10 min).
[2] abbreviates: printed on the 10 min line (= change 0 to 30 min).
Where [3] appears, read: printed on the 30 min line (= change 0 to 60 min).
Setting [4] is: printed on the 60 min line (= change 0 to 120 min).

Method: The animals were narcotised with a mixture of chloralose-urethane (1.2 g./kg. urethane+40 mg./kg. chloralose administered i.p.). They breathed spontaneously through a tracheal canula. The A. carotis sinistra was used in order to place a catheter tip monometer in the left chamber of the heart. The V. jugularis served for injection purposes. Via the A. femoralis dextra, a catheter was inserted up into the Aorta descendans and connected to a pressure recorder (Statham P 23Db). The heart frequency was recorded with a pulse frequency measurer (Firm Hugo Sachs Elektronik) from the left ventricular pressure signal. A duodenal loop was exposed by laparotomy. The substances to be tested were injected directly into the lumen.

Take `Nc1ncnc2c1ncn2[C@H]1CO[C@H]2[C@@H]1OC[C@@H]2O[N+](=O)[O-]` [1c/2c, 5-(9-Adenyl)-5-desoxy-1.4;3.6-dianhydro-L-iditol 2-nitrate]: the blood pressure by setting is: (0 min) 124.2 ± 8.3 mm. Hg; (10 min) 108.6 ± 8.5 mm. Hg; (30 min) 107.8 ± 8.4 mm. Hg; (60 min) 106.6 ± 7.8 mm. Hg; (120 min) 106.2 ± 5.6 mm. Hg. This compound returned a dp/dt (0 min) of 7220 ± 611 mm sec; a dp/dt (10 min) of 7500 ± 522 mm sec; a dp/dt (30 min) of 6960 ± 564 mm sec; a dp/dt (60 min) of 7100 ± 721 mm sec; a dp/dt (120 min) of 7000 ± 1026 mm sec. The heart frequency reads like this: (0 min) 171.6 ± 6.2 min⁻¹; (10 min) 180.4 ± 4.3 min⁻¹; (30 min) 177.2 ± 5.4 min⁻¹; (60 min) 177.6 ± 5.1 min⁻¹; (120 min) 178.8 ± 4.4 min⁻¹. The “blood pressure Δ” value is -15.6 mm. Hg under setting [1], -16.4 mm. Hg under setting [2], -17.6 mm. Hg under setting [3] and -18.0 mm. Hg under setting [4]. Besides, the “dp/dt Δ” value under setting [1] was “+280 mm sec”, the “dp/dt Δ” value under setting [2] is -260 mm sec, the “dp/dt Δ” value under setting [3] was -120 mm sec and the “dp/dt Δ” value under setting [4] is on record as -220 mm sec.
